Where two headings read alike, the source gives them in different places. Values belong to the compound of their own block, whether it stands above or below them.
Legend:
DRD4 = molecular target: T1, DRD4 (Homo sapiens, UniProt P21917); assay: DRD4 PRESTO-Tango; assay type: cell-based; conditions: pure ligand
T1 sequence (P21917 1-419): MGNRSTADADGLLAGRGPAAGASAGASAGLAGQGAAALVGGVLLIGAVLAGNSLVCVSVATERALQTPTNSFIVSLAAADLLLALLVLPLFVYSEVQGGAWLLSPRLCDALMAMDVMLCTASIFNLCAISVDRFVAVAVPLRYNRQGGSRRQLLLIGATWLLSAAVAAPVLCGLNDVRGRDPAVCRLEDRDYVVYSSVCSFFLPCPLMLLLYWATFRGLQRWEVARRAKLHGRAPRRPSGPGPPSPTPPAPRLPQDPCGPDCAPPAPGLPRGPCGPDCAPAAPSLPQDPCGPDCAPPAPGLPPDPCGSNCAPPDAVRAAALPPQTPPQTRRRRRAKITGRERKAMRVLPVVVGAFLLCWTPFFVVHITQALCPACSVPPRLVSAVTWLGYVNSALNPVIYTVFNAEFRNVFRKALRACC

DRD3 = DRD3 (Homo sapiens, UniProt P35462); assay: DRD3 PRESTO-Tango; assay type: cell-based; conditions: pure ligand
DRD2 [1] = molecular target: T2, DRD2 (Homo sapiens, UniProt P14416); assay: DRD2 PRESTO-Tango; assay type: cell-based; conditions: pure ligand
GPR56/AGRG1 = GPR56/AGRG1 (Homo sapiens, UniProt Q9Y653); assay: GPR56 PRESTO-Tango; conditions: titrating doses of pure amino acid
[2] = in vivo; cited from earlier work
[3] = molecular target: GPR56-ANT (a mutant lacking the extracellular domain) (Homo sapiens, UniProt Q9Y653); assay: PRESTO-Tango on GPR56 truncation mutant; conditions: titrating doses of L-Phe
GPR97/AGRG3 = GPR97/AGRG3 (Homo sapiens, UniProt Q86Y34); assay: GPR97 PRESTO-Tango; conditions: titrating doses of pure amino acid
colon motility [4] = conditions: rodents; cited from earlier work
DRD2 [5] = molecular target: T2, DRD2; conditions: for phenethylamine as measured by DRD2 activation by cecal and colonic extracts: L-Phe deficient diet, MAOI
colon motility [6] = assay: Intestinal motility by fecal output; assay type: in vivo, C57Bl/6 mice; conditions: M. morganii colonized mice, 1% L-His in water for 2 weeks

GPR56/AGRG1, sequence (Q9Y653 26-693): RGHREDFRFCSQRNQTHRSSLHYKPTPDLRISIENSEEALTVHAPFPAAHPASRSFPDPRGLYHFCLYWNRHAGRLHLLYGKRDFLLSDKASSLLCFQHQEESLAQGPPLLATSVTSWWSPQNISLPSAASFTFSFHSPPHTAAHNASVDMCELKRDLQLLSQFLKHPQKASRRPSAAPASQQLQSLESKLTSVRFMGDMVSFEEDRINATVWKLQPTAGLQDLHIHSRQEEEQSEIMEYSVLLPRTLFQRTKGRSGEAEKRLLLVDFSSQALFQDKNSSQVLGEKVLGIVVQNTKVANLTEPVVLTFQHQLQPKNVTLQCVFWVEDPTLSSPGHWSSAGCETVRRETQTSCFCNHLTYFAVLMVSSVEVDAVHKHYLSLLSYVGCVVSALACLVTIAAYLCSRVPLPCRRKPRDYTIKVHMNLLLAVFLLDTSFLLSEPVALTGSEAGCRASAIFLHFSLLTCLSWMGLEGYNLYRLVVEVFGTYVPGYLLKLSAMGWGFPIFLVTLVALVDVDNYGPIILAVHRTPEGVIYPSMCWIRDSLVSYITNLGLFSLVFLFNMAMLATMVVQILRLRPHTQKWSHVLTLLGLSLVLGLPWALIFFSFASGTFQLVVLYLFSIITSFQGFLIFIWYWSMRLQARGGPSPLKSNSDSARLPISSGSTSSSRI
T2 sequence (P14416 whole entry): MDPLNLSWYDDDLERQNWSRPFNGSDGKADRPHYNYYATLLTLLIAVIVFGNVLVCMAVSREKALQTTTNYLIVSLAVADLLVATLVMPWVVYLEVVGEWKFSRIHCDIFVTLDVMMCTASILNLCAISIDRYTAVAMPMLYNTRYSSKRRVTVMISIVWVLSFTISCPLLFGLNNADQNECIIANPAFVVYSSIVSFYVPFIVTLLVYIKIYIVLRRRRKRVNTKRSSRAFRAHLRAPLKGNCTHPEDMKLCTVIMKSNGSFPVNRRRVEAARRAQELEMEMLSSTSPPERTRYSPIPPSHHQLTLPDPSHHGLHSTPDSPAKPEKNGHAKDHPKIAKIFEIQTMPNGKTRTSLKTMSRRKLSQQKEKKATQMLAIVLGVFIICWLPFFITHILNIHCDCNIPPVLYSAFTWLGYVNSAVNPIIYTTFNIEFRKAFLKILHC
DRD3, sequence (P35462 whole entry): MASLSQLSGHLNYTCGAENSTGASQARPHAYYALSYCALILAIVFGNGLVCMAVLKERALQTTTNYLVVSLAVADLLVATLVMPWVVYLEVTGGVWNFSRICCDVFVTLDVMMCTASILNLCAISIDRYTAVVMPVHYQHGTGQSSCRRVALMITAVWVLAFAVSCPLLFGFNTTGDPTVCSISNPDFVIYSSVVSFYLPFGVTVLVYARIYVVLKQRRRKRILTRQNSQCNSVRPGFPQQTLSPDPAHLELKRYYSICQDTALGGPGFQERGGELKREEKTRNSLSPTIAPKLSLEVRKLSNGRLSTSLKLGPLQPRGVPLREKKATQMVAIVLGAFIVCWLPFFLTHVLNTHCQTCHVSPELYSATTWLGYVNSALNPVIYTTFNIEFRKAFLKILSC
GPR97/AGRG3, sequence (Q86Y34 21-549): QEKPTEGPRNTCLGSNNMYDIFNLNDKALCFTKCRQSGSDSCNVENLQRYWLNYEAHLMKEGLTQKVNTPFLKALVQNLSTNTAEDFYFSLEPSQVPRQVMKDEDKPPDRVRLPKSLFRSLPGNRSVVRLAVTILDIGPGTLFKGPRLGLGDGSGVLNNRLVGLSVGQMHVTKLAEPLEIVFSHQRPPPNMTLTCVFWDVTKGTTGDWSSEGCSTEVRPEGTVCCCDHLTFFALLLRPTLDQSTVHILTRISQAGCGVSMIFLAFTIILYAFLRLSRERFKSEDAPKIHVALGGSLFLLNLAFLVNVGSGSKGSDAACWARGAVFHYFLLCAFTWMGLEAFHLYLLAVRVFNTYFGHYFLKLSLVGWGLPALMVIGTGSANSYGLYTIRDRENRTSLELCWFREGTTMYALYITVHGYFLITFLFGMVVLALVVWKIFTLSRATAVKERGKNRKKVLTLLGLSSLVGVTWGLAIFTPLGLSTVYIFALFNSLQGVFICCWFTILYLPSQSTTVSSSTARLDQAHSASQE
GPR56-ANT (a mutant lacking the extracellular domain), sequence (Q9Y653 383-693 limits assumed, change not shown): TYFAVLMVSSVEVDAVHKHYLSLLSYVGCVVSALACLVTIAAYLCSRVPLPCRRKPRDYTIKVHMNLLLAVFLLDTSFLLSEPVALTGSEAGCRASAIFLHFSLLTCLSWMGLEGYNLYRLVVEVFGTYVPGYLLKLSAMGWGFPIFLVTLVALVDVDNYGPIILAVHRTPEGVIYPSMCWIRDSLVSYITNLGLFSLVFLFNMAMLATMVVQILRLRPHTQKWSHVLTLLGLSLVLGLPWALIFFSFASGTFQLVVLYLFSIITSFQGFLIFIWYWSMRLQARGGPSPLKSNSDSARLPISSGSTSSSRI

Compound: N[C@H](Cc1c[nH]cn1)C(=O)O [D-His]
activation of GPR56/AGRG1 (GPR56/AGRG1): no activity

Compound: NCCc1ccccc1 [phenethylamine, Phenethylamine]
crossing of the blood-brain barrier [2]: can readily cross
activation of DRD4 (DRD4): selective DRD2/DRD3/DRD4 agonists
activation of DRD3 (DRD3): selective DRD2/DRD3/DRD4 agonists
activation of DRD2 (DRD2 [1]): selective DRD2/DRD3/DRD4 agonists

Compound: N[C@@H](Cc1ccccc1)C(=O)O [L-Phe, L-phenylalanine]
response of GPR56/AGRG1 truncation mutant lacking the extracellular domain [3]: failed to respond
activation of GPR56/AGRG1 (GPR56/AGRG1): stereoselectively activated
activation of GPR97/AGRG3 (GPR97/AGRG3): activated

Compound: NCCc1c[nH]cn1 [histamine, Histamine]
effect of oral gavage on colon motility (colon motility [4]): increase colon motility

Compound: N[C@H](Cc1ccc(O)cc1)C(=O)O [D-Tyr]
activation of GPR56/AGRG1 (GPR56/AGRG1): no activity

Compound: NNCCc1ccccc1 [phenelzine]
DRD2 activation by cecal and colonic contents and serum (DRD2 [5]; MAOI-treated M. morganii colonized mice): activated DRD2
phenethylamine as measured by DRD2 activation by cecal and colonic extracts (DRD2 [5]; mice bi-colonized with C34 and M. morganii): significant levels of phenethylamine
phenethylamine as measured by DRD2 activation by cecal and colonic extracts (DRD2 [5]; mice colonized with M. morganii alone): minimal phenethylamine
onset of lethargy after MAOI treatment (C57Bl/6, mouse, in vivo): ≤ 4 days
mortality after treatment with MAOI (mice colonized with M. morganii, died before the seventh day of treatment): more than half
health after MAOI treatment (mouse, in vivo): remained healthy
health after treatment with MAOI (mouse, in vivo): appeared healthy
morbidity after treatment with MAOI (mouse, in vivo): lethargic within days

Compound: N[C@@H](Cc1c[nH]cn1)C(=O)O [L-His, L-histidine]
fecal output upon supplementation with L-His (colon motility [6]): further increased
activation of GPR56/AGRG1 (GPR56/AGRG1): no activity

Second part, the compound after the results:

activation of DRD4 (DRD4): selective DRD2/DRD3/DRD4 agonists
activation of DRD3 (DRD3): selective DRD2/DRD3/DRD4 agonists
activation of DRD2 (DRD2 [1]): selective DRD2/DRD3/DRD4 agonists
Compound: NCCc1ccc(O)cc1 [tyramine, Tyramine]

activation of DRD2 (DRD2 [1]): efficiently activated
Compound: NCCc1ccc(O)c(O)c1 [dopamine, Dopamine]

activation of GPR56/AGRG1 (GPR56/AGRG1): no activity
Compound: N[C@H](Cc1c[nH]c2ccccc12)C(=O)O [D-Trp]

activation of GPR56/AGRG1 (GPR56/AGRG1): no activity
Compound: N[C@@H](Cc1c[nH]c2ccccc12)C(=O)O [L-Trp, L-tryptophan]

activation of GPR56/AGRG1 (GPR56/AGRG1): no activity
Compound: N[C@H](Cc1ccccc1)C(=O)O [D-Phe]
